Consider 30 compounds from patent US20230382911A1 (Hoffmann-La Roche Inc., priority 2021, published 2023).

In general, pIC50 refers to the IC50 on a negative log10 scale, so that one unit is a factor of ten.

pIC50: −log10 of the molar value.

In this test the target is Recombinant human Mat2a (Homo sapiens (Human), UniProt P31153). The test can be described thus: Determination of Mat2A activity: 384 well format absorbance-based Mat2A inhibition assay. The format is biochemical. Conditions: 12.5 nM Mat2A, 100 μM ATP and Methionine, 2% DMSO, 120 minutes at RT, Biomol Green, absorbance at 635 nm. The method, then: Determination of Mat2A Activity
Sequence of Recombinant human Mat2a (P31153 whole entry): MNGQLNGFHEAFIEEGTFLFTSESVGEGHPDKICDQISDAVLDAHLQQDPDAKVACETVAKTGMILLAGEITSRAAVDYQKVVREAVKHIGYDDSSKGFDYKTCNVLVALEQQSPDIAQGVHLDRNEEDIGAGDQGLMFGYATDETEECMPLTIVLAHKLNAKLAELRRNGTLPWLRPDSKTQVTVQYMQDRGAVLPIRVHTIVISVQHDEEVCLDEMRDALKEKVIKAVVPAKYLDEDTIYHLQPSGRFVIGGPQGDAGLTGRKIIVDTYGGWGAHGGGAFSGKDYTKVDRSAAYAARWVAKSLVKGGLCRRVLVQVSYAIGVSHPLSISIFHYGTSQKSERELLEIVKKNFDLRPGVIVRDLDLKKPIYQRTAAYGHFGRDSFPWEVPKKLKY
Measurement of Mat2A inhibition is performed in 384 well format absorbance-based assay.
Recombinant human Mat2a (12.5 nM) and serial diluted compounds in DMSO (range of concentrations from 10 μM to […]) or controls (DMSO) are incubated for 15 minutes at room temperature (RT) in assay buffer containing 50 mM HEPES pH 7.5, 50 mM KCl, 50 mM MgCl2, 0.01% Tween 20 and 10 mM DTT. The reaction is initiated by the addition of the combined substrates ATP and Methionine, each at a final concentration of 100 μM. Final assay condition are 12.5 nM Mat2A, 100 μM ATP and Methionine Substrates and 2% DMSO. After 120 minutes of incubation at RT, the reaction is stopped by the addition of Biomol Green. The absorbance signal is measured at λ=635 nm with a multiplate reader (BMG Pherastar reader or equivalent) after 30 min of equilibration at RT.

On to `COC1CCCCC1C(=O)n1nc(N)c2ccc(C3CC3)nc21` (stereo not drawn) [Example 37, (3-amino-6-cyclopropyl-1H-pyrazolo[3,4-b]pyridin-1-yl)(2-methoxycyclohexyl)methanone], for which the negative-log IC50 (pIC50) was 6.54.

As for `COc1ccccc1C(=O)n1nc(N)c2cnc(N3CCCC3)nc21` [Example 16, (3-amino-6-(pyrrolidin-1-yl)-1H-pyrazolo[3,4-d]pyrimidin-1-yl)(2-methoxyphenyl)methanone], the pIC50 was 7.19. Under `COc1c(C#N)cccc1C(=O)n1nc(N)c2ccc(C3CC3)nc21` [Example 72, 3-(3-amino-6-cyclopropyl-1H-cyclopropyl-1H-pyrazolo[3,4-b]pyridine-1-carbonyl)-2-methoxybenzonitrile] stands 7.43. Under `COc1ccccc1C(=O)n1nc(N)c2ccc(N3CCC3)nc21` [Example 24, (3-amino-6-(azetidin-1-yl)-1H-pyrazolo[3,4-b]pyridin-1-yl)(2-methoxyphenyl)methanone] stands 6.52; under `Nc1nn(C(=O)C2CCOCC2)c2nc(C3CC3)ccc12` [Example 67, (3-amino-6-cyclopropyl-1H-pyrazolo[3,4-b]pyridin-1-yl)(tetrahydro-2H-pyran-4-yl)methanone], 7.31. Under `CC1OCCC1C(=O)n1nc(N)c2ccc(C3CC3(F)F)nc21` (stereo not drawn) [Example 50, (3-amino-6-(2,2-difluorocyclopropyl)-1H-pyrazolo[3,4-b]pyridin-1-yl)(2-methyltetrahydrofuran-3-yl)methanone] stands 6.80. Consider `Cc1ccccc1C(=O)n1nc(N)c2ccc(C3(C)CC3)nc21` [Example 48, (3-amino-6-(1-methylcyclopropyl)-1H-pyrazolo[3,4-b]pyridin-1-yl)(o-tolyl)methanone], for which the negative logarithm of the IC50 (pIC50) is 6.89. As for `COc1ccccc1C(=O)n1nc(N)c2ccc(C3=CCCC3)nc21` [Example 23, [3-amino-6-(cyclopenten-1-yl)pyrazolo[3,4-b]pyridin-1-yl]-(2-methoxyphenyl)methanone], the figure is 7.70; as for `Nc1nn(C(=O)c2ccccc2Cl)c2nc(N3CCCC3)c(F)cc12` [Example 12, (3-amino-5-fluoro-6-(pyrrolidin-1-yl)-1H-pyrazolo[3,4-b]pyridin-1-yl)(2-chlorophenyl)methanone], 6.85.

Take `CC1OCCC1C(=O)n1nc(N)c2ccc(C3CC3)nc21` (stereo not drawn) [Example 64, (3-amino-6-cyclopropyl-1H-pyrazolo[3,4-b]pyridin-1-yl)(2-methyltetrahydrofuran-3-yl)methanone]: the negative-log IC50 (pIC50) was 7.39. With `Nc1nn(C(=O)c2ccccc2Cl)c2nc(N3CCCC3)ncc12` [Example 18, (3-amino-6-(pyrrolidin-1-yl)-1H-pyrazolo[3,4-d]pyrimidin-1-yl)(2-chlorophenyl)methanone], the pIC50 was 6.46.

As for `Nc1nn(C(=O)c2ccccc2Cl)c2nc(N3CCCC3)ccc12` [Example 4, (3-amino-6-(pyrrolidin-1-yl)-1H-pyrazolo[3,4-b]pyridin-1-yl)(2-chlorophenyl)methanone], the pIC50 was 6.85. As for `Cc1ccccc1C(=O)n1nc(N)c2cc(Cl)c(C3CC3)nc21` [Example 9], the figure is 6.41. For `COc1c(F)cccc1C(=O)n1nc(N)c2ccc(C3=CCOC3)nc21` [Example 47, [3-amino-6-(2,5-dihydrofuran-3-yl)pyrazolo[3,4-b]pyridin-1-yl]-(3-fluoro-2-methoxyphenyl)methanone], the pIC50 was 7.60.

Consider `Nc1nn(C(=O)C2CCCCC2)c2nc(C3CC3)ccc12` [Example 56, (3-amino-6-cyclopropyl-1H-pyrazolo[3,4-b]pyridin-1-yl)(cyclohexyl)methanone], for which the pIC50 is 6.37. As for `COc1ccccc1C(=O)n1nc(N)c2ccc(C3=CCCCO3)nc21` [Example 22, [3-amino-6-(3,4-dihydro-2H-pyran-6-yl)pyrazolo[3,4-b]pyridin-1-yl]-(2-methoxyphenyl)methanone], the figure is 6.36. Under `Cc1c(C#N)cccc1C(=O)n1nc(N)c2ccc(C3CC3)nc21` [Example 66, 3-(3-amino-6-cyclopropyl-1H-pyrazolo[3,4-b]pyridine-1-carbonyl)-2-methylbenzonitrile] stands 7.27; under `Cc1nccnc1C(=O)n1nc(N)c2ccc(C3CC3)nc21` [Example 74, (3-amino-6-cyclopropyl-1H-pyrazolo[3,4-b]pyridin-1-yl)(3-methylpyrazin-2-yl)methanone], 6.66; under `COc1ccccc1C(=O)n1nc(N)c2ccc([C@H]3C[C@@H]3F)nc21` (racemic) [Example 39, (3-amino-6-((1RS,2SR)-2-fluorocyclopropyl)-1H-pyrazolo[3,4-b]pyridin-1-yl)(2-methoxyphenyl)methanone], 7.19. Under `COc1ccccc1C(=O)n1nc(N)c2ccc(C(C)(C)C)nc21` [Example 15, (3-amino-6-(tert-butyl)-1H-pyrazolo[3,4-b]pyridin-1-yl)(2-methoxyphenyl)methanone] stands 7.00; under `COc1ccccc1C(=O)n1nc(N)c2ccc(C3=CCOC3)nc21` [Example 35, [3-amino-6-(2,5-dihydrofuran-3-yl)pyrazolo[3,4-b]pyridin-1-yl]-(2-methoxyphenyl)methanone], 7.77; under `CCc1ccccc1C(=O)n1nc(N)c2ccc(C3CC3)nc21` [Example 60, (3-amino-6-cyclopropyl-1H-pyrazolo[3,4-b]pyridin-1-yl)(2-ethylphenyl)methanone], 7.43. For `Cc1ccccc1C(=O)n1nc(N)c2ccc(C3CCCC3)nc21` [Example 29, (3-amino-6-cyclopentylpyrazolo[3,4-b]pyridin-1-yl)-(2-methylphenyl)methanone], the pIC50 was 6.32. For the compound `COc1ccccc1C(=O)n1nc(N)c2ccc(N3C[C@@H]4CC[C@H]3C4)nc21` (racemic) [Example 51, [3-amino-6-[(1RS,4SR)-3-azabicyclo[2.2.1]heptan-3-yl]pyrazolo[3,4-b]pyridin-1-yl]-(2-methoxyphenyl)methanone], the negative logarithm of the IC50 (pIC50) was 6.77. On to `COc1ccccc1C(=O)n1nc(N)c2ccc(C(F)(F)F)nc21` [Example 26], for which the negative-log IC50 (pIC50) is 6.92.

For the compound `Nc1nn(C(=O)c2cccnc2C(F)(F)F)c2nc(C3CC3)ccc12` [Example 77, (3-amino-6-cyclopropyl-1H-pyrazolo[3,4-b]pyridin-1-yl)(2-(trifluoromethyl)pyridin-3-yl)methanone], the negative-log IC50 (pIC50) was 7.51. As for `Cc1ccccc1C(=O)n1nc(N)c2ccc(N3CCCC3)nc21` [Example 5, (3-amino-6-(pyrrolidin-1-yl)-1H-pyrazolo[3,4-b]pyridin-1-yl)(o-tolyl)methanone], the figure is 7.03; as for `Cc1ncccc1C(=O)n1nc(N)c2ccc(C3CC3)nc21` [Example 68, (3-amino-6-cyclopropyl-1H-pyrazolo[3,4-b]pyridin-1-yl)(2-methylpyridin-methylpyridine-3-yl)methanone], 7.72. On to `Cc1ocnc1C(=O)n1nc(N)c2ccc(C3CC3)nc21` [Example 62, (3-amino-6-cyclopropyl-1H-pyrazolo[3,4-b]pyridin-1-yl)(5-methyloxazol-4-yl)methanone], for which the pIC50 was 6.46. Under `COc1c(F)cccc1C(=O)n1nc(N)c2ccc(C3CC3(F)F)nc21` (stereo not drawn) [Example 45, (3-amino-6-(2,2-difluorocyclopropyl)-1H-pyrazolo[3,4-b]pyridin-1-yl)(3-fluoro-2-methoxyphenyl)methanone] stands 7.04.
